System: Entamoeba histolytica
Test: Antiamoebic activity against Entamoeba histolytica HM-1:IMSS trophozoite assessed as growth inhibition after 72 hr by microdilution method
Format: functional, organism-based
Settings: not given

| SMILES | IC50 |
| --- | --- |
| Cc1ccc(S(=O)(=O)n2nc(-c3ccccc3)c3c(N)ncnc32)cc1 | 0.57 µM |
| Nc1ncnc2c1c(-c1ccccc1)nn2S(=O)(=O)c1ccc([N+](=O)[O-])cc1 | 2.52 µM |
| CC(=O)Nc1ccc(S(=O)(=O)n2nc(-c3ccccc3)c3c(N)ncnc32)cc1 | 0.68 µM |
| Nc1ncnc2c1c(-c1ccccc1)nn2S(=O)(=O)c1ccc(Cl)cc1 | 3.23 µM |
| Nc1ncnc2c1c(-c1ccccc1)nn2S(=O)(=O)c1cc(Cl)ccc1Cl | 2.37 µM |
| Nc1ncnc2c1c(-c1ccccc1)nn2S(=O)(=O)c1ccc2ccccc2c1 | 3.11 µM |
| Nc1ncnc2c1c(-c1ccccc1)nn2S(=O)(=O)c1ccccc1 | 4.24 µM |
| CS(=O)(=O)n1nc(-c2ccccc2)c2c(N)ncnc21 | 5.15 µM |
| Cc1ccc(-c2cc(-c3cccc(-c4cc(-c5ccc(C)cc5)nc(N5CCCC5)n4)c3)nc(N3CCCC3)n2)cc1 | 0.16 µM |

System: MCF7
Test: Cytotoxicity against Homo sapiens (human) MCF-7 cells assessed as decrease in number of viable cells after 48 hr by MTT assay
Format: ADME, cell-based
Settings: MCF7, 48 h

| SMILES | IC50 |
| --- | --- |
| Cc1ccc(S(=O)(=O)n2nc(-c3ccccc3)c3c(N)ncnc32)cc1 | > 250 µM |
| CC(=O)Nc1ccc(S(=O)(=O)n2nc(-c3ccccc3)c3c(N)ncnc32)cc1 | > 250 µM |
| Cc1ncc([N+](=O)[O-])n1CCO [METRONIDAZOLE] | > 250 µM |

Source: ChEMBL document CHEMBL3045953, “Pyrazolo[3,4-d]pyrimidine analogues: synthesis, characterization and their in vitro antiamoebic activity” (Med Chem Res, 2013)
